# Assays:
# human recombinant HDAC6 = biological target: T1, human recombinant HDAC6 (Homo sapiens, UniProt Q9UBN7); test: HDAC enzyme activity inhibition assay (HDAC Fluorimetric Drug Discovery Kit), HDAC6; format: biochemical; settings: for HDAC6 selectivity (fold): HDAC1 vs HDAC6; for IC50: human recombinant HDAC6, same protocol as HDAC1
# T1 construct: purchased Calbiochem Inc. 382180
# T1 sequence (Q9UBN7 1-1215): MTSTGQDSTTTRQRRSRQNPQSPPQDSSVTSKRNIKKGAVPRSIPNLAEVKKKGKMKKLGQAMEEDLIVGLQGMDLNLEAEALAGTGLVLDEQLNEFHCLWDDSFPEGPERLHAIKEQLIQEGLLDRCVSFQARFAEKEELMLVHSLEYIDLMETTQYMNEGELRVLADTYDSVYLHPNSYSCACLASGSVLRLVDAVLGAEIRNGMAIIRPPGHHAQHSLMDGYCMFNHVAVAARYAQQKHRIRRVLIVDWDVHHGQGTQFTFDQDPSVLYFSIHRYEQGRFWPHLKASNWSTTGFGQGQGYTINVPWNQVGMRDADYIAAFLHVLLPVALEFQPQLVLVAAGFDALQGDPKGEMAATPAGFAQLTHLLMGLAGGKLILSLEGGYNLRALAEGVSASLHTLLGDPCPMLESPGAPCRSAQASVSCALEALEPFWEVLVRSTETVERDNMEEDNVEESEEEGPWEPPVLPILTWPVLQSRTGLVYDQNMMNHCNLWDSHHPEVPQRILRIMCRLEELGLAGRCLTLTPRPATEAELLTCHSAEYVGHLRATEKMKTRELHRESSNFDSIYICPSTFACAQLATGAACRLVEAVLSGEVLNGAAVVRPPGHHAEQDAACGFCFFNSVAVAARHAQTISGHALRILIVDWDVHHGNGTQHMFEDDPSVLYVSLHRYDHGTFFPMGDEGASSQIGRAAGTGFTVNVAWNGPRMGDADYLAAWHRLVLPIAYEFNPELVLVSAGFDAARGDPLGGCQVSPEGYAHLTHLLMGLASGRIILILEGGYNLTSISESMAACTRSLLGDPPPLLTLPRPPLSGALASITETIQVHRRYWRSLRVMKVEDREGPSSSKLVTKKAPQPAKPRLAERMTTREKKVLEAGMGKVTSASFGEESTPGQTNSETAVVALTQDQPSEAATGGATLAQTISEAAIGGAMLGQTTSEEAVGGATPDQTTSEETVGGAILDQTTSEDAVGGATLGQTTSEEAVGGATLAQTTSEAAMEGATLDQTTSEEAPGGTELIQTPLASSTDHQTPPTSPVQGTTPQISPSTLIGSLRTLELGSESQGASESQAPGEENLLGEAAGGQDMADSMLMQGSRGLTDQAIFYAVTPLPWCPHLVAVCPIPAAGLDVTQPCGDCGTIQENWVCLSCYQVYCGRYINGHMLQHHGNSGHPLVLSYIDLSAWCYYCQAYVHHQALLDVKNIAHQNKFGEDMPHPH
# Method in brief: (§1)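 The preceding reaction ran 60 min at 30 °C with 0.3 μg recombinant human enzyme, HDAC1 or HDAC6 under an identical protocol, and 10 μM Fluor de Lys-SIRT1 substrate, across 5-fold diluted compound.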
# human recombinant HDAC1 = biological target: T2, human recombinant HDAC1 (Homo sapiens, UniProt Q13547); test: HDAC enzyme activity inhibition assay (HDAC Fluorimetric Drug Discovery Kit), HDAC1; format: biochemical; settings: human recombinant HDAC1, Fluor de Lys-SIRT1 substrate, 30° C. 60 minutes
# T2 construct: purchased Enzo Life Sciences, Inc. BML-SE456
# T2 sequence (Q13547 whole entry): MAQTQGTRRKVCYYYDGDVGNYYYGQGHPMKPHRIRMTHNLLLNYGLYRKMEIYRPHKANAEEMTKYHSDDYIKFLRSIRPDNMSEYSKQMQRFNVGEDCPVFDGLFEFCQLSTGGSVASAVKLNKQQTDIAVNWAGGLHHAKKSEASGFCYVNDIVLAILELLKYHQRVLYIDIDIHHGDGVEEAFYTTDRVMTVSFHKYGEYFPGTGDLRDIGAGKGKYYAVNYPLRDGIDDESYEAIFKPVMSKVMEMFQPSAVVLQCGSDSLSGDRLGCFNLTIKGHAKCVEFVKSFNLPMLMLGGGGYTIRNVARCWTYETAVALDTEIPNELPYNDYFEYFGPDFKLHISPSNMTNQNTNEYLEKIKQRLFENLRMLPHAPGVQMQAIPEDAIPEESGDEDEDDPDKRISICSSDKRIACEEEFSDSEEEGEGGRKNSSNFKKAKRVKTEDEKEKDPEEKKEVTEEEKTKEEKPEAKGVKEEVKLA
# Method in brief: as §1
HDAC6 selectivity (fold) (human recombinant HDAC6),IC50 (human recombinant HDAC6),IC50 (human recombinant HDAC1),Structure (SMILES)
325 fold,154 nM,> 50 µM,"O=C(N1CC(F)(C(=O)N(Cc2ccc(-c3nnc(C(F)F)o3)cc2F)c2ccccc2)C1)C(F)(F)F [Compound 3435, N-(4-(5-(difluoromethyl)-1,3,4-oxadiazol-2-yl)-2-fluorobenzyl)-3-fluoro-N-phenyl-1-(2,2,2-trifluoroacetyl)azetidine-3-carboxamide]"
741 fold,67.4 nM,> 50 µM,"O=C(N(Cc1ccc(-c2nnc(C(F)F)o2)cn1)c1cccc(F)c1)C1(F)CN(CC2CCCCC2)C1 [Compound 3171, 1-(cyclohexylmethyl)-N-((5-(5-(difluoromethyl)-1,3,4-oxadiazol-2-yl)pyridin-2-yl)methyl)-3-fluoro-N-(3-fluorophenyl)azetidine-3-carboxamide]"
"1,187 fold",42.1 nM,> 50 µM,O=C(N(Cc1ccc(-c2nnc(C(F)F)o2)cn1)c1cccc(F)c1)C1(F)CN(CC2CCOCC2)C1 [Compound 3218]
"1,951 fold",22.8 nM,44.5 µM,"CCCN1CCC(N2CC(F)(C(=O)N(Cc3ccc(-c4nnc(C(F)F)o4)cn3)c3cccc(F)c3)C2)CC1 [Compound 3401, N-((5-(5-(difluoromethyl)-1,3,4-oxadiazol-2-yl)pyridin-2-yl)methyl)-3-fluoro-N-(3-fluorophenyl)-1-(1-propylpiperidin-4-yl)azetidine-3-carboxamide]"
"2,212 fold",22.6 nM,> 50 µM,"CCN1CC(F)(C(=O)N(Cc2ccc(-c3nnc(C(F)F)o3)cn2)c2cccc(F)c2)C1 [Compound 3090, N-((5-(5-(difluoromethyl)-1,3,4-oxadiazol-2-yl)pyridin-2-yl)methyl)-1-ethyl-3-fluoro-N-(3-fluorophenyl)azetidine-3-carboxamide]"
"1,343 fold",25.8 nM,34.7 µM,"O=C(N(Cc1ccc(-c2nnc(C(F)F)o2)cn1)c1cccc(F)c1)C1(F)CN(C2CCN(C3CCOCC3)CC2)C1 [Compound 3410, N-((5-(5-(difluoromethyl)-1,3,4-oxadiazol-2-yl)pyridin-2-yl)methyl)-3-fluoro-N-(3-fluorophenyl)-1-(1-(tetrahydro-2H-pyran-4-yl)piperidin-4-yl)azetidine-3-carboxamide]"

# — patent US20230278995A1, “1,3,4-OXADIAZOLE DERIVATIVE COMPOUNDS AS HISTONE DEACETYLASE 6 INHIBITOR, AND THE PHARMACEUTICAL COMPOSITION COMPRISING THE SAME” (CHONG KUN DANG PHARMACEUTICAL CORP., priority 2020, published 2023)
